Measurements from patent US20140227333A1, “DRY ACTIVE OXYGEN TECHNOLOGY” (ECOLAB USA INC., priority 2013, published 2014).
Where two headings read alike, the source gives them in different places.

Experiments:
[1] = Titration of hydrogen peroxide concentration, initially and 24 hours later (stability of the active oxidant); assay type: physicochemical; conditions: titrated initially and 24 hours later
Experimental: The dry-to-touch powder compositions generated in Example 2 were further analyzed for stability of the active oxidant. The compositions were titrated initially and 24 hours later, giving nearly the same resulting amount of hydrogen peroxide concentration in the untreated liquid composition (35%) and the dry-to-touch powder composition (31%).

[2] = cited from earlier work

Row | hydrogen peroxide concentration [1] [%] | Molecule | PEI protonated ([2]; pH 2) | PEI protonated ([2]; pH 4) | PEI protonated ([2]; pH 5) | PEI protonated ([2]; pH 8) | PEI protonated ([2]; pH 10)
1 | 35 | OO [liquid hydrogen peroxide (35%), hydrogen peroxide] |  |  |  |  | 
2 |  | polyethyleneimine [PEI] | about 73% | about 50% | about 33% | about 25% | about 4%
